Where two headings read alike, the source gives them in different places.
Key:
[1] = tested on: SZ95 human sebocyte cells; test: Inhibition of de novo lipogenesis (14C-acetate incorporation) in cultured human sebocytes; format: cell-based; details: SZ95 sebocytes, 14C-acetate incorporation into lipids relative to vehicle, read-out: C9302E Sebocyte IC50
Protocol: SZ95 sebocytes were grown in Human Sebocyte Growth Medium (HSGM) (Sebomed® medium (Biochrom: F8205) supplemented with 10% heat-inactivated fetal bovine serum, 1% penicillin/streptomycin, 1 mM calcium chloride and 5 ng/mL recombinant human epidermal growth factor (Life Tech: PHG0311)). At 90% confluence, cells were washed three times with PBS and then detached with 0.05% Trypsin-EDTA. Cells were centrifuged and resuspended in HSGM containing 10% charcoal-stripped serum (Life Tech: 12676-029). Cells were then plated in 24-well plates at a density of 0.25×10^6 cells/well and were incubated overnight to enable cell adherence to the culture plate.
Cells were treated with a dose response of compound, and each dose was assayed in triplicate. Briefly, compounds were dissolved in DMSO stocks and diluted 1:1000 into charcoal-stripped media. 0.1% DMSO without compound was used as the vehicle control. After a 1 hour preincubation with compound or vehicle, 0.25 μCi ^14C-acetic acid (American Radiolabeled Chemicals: ARC0158B) was added to each well. Plates were then incubated for an additional two hours. At the end of the incubation period, cells were removed from incubator, placed on ice, and then washed twice with ice-cold PBS to remove free ^14C-acetic acid. Plates were sealed and stored at −20° C. until analysis.
Plates were shaken for 1 hour at room temperature to induce lysis. Lysates were transferred to individual 1.5 mL polypropylene tubes, and wells were washed with 175 μl of PBS, which was added to lysates. 450 μl of a 1:1 (v/v) chloroform:methanol solution was then added to each tube, and then all tubes were vortexed for 10 seconds and centrifuged at 20,000×g for 5 minutes at room temperature to separate aqueous from organic phase. A 25 μl aliquot was removed from the bottom organic layer of each sample and added to 6 mL OptiPhase supermix (PerkinElmer: 1200-439) scintillation fluid. Counts of ^14C incorporated into lipids were assessed by scintillation counting. DNL (counts of ^14C incorporated into lipids) was expressed for compound treated cells relative to DNL in the vehicle control treated cells for determination of EC50 values. For a subset of the compounds tested, a second aliquot (3×35 μl) of the organic layer of each sample was removed and applied to a TLC lane (Analtech Silica Gel G Plates). Radiolabeled lipids were resolved using a 2-solvent system. Solvent 1 contained a 100:100:100:40:36 mixture of ethyl acetate:isopropyl alcohol:CHCl3:MeOH:0.25% KCl and solvent 2 a 70:27:3 hexane:diethyl ether:acetic acid mix. The TLC plate was dried under nitrogen for 30 minutes and [^14C]-calibrators added to a vacant lane. Bands were visualized and quantitated using a Molecular Dynamics' Storm 860 Phosphorimager system following 18-36 hours exposure to a Phosphorimager screen.

hACC1 = hACC1 (Homo sapiens, UniProt Q13085); test: Radiometric ACC1 inhibition assay; format: biochemical
hACC2 = hACC2 (Homo sapiens, UniProt O00763); test: Radiometric ACC2 inhibition assay; format: biochemical
[2] = biological target: T1, recombinant human ACC1 (rhACC1) (Homo sapiens, UniProt Q13085, DEL44-44); test: Transcreener ADP detection FP assay, recombinant human ACC1 inhibition; format: biochemical; details: recombinant human ACC1, 50 μM ATP; read-out: Transcreener Assay hACC1 IC50
T1 construct: His6 (N); made in house; host or cells: SF9 insect cells (baculovirus)

[3] = biological target: T2, recombinant human ACC2 (rhACC2) (Homo sapiens, UniProt O00763, V2141I); test: Transcreener ADP detection FP assay, recombinant human ACC2 inhibition; format: biochemical; details: recombinant human ACC2, 50 μM ATP; read-out: Transcreener Assay hACC2 IC50
T2 construct: made in house; host or cells: CHO cells, tetracycline-induced (pcDNA5 FRT TO-TOPO)
T2 sequence (O00763 whole entry V2141I): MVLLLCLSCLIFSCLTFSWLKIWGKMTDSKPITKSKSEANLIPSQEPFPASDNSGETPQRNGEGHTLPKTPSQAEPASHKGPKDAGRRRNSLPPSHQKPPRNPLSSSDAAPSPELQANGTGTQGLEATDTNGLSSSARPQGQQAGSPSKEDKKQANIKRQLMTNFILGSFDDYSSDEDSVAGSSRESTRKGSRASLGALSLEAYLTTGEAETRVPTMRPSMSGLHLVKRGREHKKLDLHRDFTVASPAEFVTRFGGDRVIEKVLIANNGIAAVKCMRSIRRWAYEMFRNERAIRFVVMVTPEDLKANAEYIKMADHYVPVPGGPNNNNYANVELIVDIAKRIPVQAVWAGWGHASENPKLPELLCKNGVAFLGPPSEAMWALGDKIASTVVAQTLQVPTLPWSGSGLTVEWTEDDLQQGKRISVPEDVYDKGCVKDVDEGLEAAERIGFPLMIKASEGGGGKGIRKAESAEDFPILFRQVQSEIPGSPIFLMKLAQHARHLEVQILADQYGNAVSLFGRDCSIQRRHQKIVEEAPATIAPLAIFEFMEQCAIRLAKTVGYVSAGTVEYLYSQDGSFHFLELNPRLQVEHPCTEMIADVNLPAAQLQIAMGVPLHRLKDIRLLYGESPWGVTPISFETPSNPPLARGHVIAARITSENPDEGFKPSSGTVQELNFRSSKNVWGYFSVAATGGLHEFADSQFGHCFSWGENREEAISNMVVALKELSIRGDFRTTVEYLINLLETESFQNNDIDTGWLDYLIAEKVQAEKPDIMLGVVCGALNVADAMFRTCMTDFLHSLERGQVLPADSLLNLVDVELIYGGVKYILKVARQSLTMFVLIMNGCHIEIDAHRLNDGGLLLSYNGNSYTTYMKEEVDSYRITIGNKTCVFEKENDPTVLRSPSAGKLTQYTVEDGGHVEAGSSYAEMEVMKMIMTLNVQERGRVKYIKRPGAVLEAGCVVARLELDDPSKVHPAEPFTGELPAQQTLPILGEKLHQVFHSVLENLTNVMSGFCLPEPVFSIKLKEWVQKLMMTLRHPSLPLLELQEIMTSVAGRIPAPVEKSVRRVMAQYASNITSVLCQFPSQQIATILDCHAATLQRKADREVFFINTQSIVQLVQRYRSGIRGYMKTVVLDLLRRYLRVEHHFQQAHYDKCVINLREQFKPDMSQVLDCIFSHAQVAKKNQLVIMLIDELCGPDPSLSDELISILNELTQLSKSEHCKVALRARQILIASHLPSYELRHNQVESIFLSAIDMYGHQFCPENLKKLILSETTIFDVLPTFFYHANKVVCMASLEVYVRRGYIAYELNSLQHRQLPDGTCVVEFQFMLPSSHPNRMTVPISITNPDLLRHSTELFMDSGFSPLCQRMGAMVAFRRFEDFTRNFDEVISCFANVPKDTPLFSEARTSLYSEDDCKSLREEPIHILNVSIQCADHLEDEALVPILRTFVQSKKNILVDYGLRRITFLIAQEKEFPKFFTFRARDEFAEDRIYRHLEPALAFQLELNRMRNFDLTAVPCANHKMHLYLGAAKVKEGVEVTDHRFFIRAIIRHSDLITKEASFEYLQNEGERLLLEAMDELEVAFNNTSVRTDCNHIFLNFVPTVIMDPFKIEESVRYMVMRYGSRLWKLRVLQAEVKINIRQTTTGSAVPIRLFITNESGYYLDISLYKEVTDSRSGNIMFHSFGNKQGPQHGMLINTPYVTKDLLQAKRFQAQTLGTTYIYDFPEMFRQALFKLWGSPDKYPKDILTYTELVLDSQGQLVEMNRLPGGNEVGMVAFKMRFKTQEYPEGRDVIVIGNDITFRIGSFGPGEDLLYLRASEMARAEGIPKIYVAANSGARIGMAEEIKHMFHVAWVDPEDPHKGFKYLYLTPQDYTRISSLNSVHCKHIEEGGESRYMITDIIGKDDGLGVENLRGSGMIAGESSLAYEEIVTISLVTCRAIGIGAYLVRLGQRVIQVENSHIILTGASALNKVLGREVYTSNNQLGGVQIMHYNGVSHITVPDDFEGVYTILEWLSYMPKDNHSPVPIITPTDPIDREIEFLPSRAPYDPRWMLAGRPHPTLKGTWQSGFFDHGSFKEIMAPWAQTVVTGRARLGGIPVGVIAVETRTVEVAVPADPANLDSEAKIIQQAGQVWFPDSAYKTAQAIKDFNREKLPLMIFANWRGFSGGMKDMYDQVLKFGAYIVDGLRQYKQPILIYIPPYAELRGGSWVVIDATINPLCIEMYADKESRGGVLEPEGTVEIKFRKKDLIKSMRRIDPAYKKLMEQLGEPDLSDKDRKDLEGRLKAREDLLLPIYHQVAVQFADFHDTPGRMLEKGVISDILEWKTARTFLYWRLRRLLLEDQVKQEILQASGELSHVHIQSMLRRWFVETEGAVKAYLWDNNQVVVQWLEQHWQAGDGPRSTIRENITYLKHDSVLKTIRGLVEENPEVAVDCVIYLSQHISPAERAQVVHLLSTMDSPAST

hACC2, sequence (O00763 whole entry): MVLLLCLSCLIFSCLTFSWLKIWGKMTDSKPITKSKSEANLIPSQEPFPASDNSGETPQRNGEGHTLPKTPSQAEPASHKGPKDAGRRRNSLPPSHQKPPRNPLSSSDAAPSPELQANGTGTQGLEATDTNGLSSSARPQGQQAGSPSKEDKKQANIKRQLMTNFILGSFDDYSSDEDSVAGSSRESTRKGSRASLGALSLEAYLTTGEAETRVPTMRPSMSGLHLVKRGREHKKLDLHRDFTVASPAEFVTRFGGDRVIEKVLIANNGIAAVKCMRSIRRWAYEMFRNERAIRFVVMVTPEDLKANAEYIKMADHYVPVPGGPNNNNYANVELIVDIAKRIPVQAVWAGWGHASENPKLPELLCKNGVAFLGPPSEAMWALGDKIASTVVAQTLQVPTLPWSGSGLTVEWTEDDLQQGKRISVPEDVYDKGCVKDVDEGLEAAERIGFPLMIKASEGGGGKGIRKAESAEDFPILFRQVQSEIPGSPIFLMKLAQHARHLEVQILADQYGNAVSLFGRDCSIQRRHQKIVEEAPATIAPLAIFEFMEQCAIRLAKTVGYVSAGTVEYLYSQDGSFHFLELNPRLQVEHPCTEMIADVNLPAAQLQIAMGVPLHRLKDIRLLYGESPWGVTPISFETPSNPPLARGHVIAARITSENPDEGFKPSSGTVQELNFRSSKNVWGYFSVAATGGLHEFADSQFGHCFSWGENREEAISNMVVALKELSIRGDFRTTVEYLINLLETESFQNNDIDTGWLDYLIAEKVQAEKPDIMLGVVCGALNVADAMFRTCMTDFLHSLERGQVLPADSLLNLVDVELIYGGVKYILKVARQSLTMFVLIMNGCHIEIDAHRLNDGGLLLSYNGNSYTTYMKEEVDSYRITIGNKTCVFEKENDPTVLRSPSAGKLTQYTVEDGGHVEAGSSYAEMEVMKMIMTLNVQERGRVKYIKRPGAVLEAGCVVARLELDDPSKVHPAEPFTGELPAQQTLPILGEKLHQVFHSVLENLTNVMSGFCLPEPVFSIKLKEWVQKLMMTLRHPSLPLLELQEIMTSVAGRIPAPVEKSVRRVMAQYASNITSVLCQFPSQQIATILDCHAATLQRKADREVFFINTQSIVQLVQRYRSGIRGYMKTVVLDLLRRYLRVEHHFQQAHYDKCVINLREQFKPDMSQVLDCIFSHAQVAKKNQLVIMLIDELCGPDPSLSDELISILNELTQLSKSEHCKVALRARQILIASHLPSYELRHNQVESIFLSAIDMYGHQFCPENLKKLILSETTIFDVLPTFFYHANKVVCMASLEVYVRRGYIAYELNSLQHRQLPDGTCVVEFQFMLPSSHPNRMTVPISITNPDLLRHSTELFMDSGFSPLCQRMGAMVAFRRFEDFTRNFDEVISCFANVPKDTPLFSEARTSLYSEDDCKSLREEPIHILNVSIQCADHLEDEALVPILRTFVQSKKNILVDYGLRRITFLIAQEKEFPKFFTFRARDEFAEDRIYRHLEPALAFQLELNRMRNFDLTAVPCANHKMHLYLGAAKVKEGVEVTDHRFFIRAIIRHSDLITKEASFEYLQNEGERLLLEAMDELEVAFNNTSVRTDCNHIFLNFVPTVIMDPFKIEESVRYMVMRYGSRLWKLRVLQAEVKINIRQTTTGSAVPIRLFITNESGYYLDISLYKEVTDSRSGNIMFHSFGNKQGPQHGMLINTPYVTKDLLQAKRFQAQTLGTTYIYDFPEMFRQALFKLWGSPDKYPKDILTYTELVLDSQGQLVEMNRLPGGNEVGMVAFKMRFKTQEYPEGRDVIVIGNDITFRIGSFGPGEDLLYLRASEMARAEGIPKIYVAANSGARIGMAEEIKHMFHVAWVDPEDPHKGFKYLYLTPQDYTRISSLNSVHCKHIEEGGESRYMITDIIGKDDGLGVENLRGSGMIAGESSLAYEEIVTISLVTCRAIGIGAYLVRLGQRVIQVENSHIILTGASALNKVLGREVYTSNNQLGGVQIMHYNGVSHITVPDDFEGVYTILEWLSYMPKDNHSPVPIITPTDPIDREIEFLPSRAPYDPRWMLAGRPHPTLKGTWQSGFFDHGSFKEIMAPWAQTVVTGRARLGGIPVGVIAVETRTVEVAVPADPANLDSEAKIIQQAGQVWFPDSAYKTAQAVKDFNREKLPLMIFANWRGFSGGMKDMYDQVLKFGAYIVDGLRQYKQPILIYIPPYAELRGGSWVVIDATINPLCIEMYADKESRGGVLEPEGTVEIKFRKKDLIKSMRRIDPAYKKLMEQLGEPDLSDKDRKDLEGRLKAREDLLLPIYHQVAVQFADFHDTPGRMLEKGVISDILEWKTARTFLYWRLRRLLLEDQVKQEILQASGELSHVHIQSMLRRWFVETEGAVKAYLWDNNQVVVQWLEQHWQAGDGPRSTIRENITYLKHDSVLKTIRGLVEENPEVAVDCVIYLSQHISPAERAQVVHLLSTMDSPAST

| IC50 [1] | IC50 (hACC1) | IC50 (hACC2) | IC50 [2] | IC50 [3] | IC50 ([1]; Homo sapiens) | Structure (SMILES) |
| --- | --- | --- | --- | --- | --- | --- |
| 217 nM | 4 nM | 7 nM |  |  |  | CC(C)n1ncc2c1C(=O)CC1(CCN(C(=O)c3ccc4[nH]nc(C#N)c4c3)CC1)C2 [Example 11, 5-(1-isopropyl-7-oxo-1,4,6,7-tetrahydrospiro[indazole-5,4′-piperidine]-1′-carbonyl)-1H-indazole-3-carbonitrile] |
|  |  |  | 4050 nM | 957 nM |  | CC(=O)NC(C)c1ccc(-c2cnc(Oc3ccc(OCC4CC4)cc3)s2)cc1 (stereo not drawn) [Example 22, N-(1-(4-(2-(4-(cyclopropylmethoxy)phenoxy)thiazol-5-yl)phenyl)ethyl)acetamide] |
|  | > 10000 nM |  |  |  |  | CCCCCCCCCCCCCCOc1ccc(C(=O)OC(C)C)o1 [Example 18, isopropyl 5-(tetradecyloxy)furan-2-carboxylate] |
|  |  |  | 41 nM | 28 nM |  | O=C(O)CCc1ccc(-c2ccc(S(=O)(=O)N[C@H]3CC[C@H](C(=O)N4CCOC[C@@H]4c4ccccc4)CC3)cc2)cc1 [Example 24, 3-(4′-(N-((1S,4r)-4-((S)-3-phenylmorpholine-4-carbonyl)cyclohexyl)sulfamoyl)-[1,1′-biphenyl]-4-yl)propanoic acid] |
|  | 5 nM | 8 nM | 62 nM | 30 nM | 201 nM | CC(C)n1ncc2c1C(=O)CC1(CCN(C(=O)c3ccc4[nH]ncc4c3)CC1)C2 [Example 5, 1′-(1H-indazole-5-carbonyl)-1-isopropyl-4,6-dihydrospiro[indazole-5,4′-piperidin]-7(1H)-one] |
|  |  |  |  |  | 94 nM | COc1nccc2ccc(C(=O)N3CCC4(CC3)Cc3cn(C(C)(C)C)nc3C(=O)N4)cc12 [Example 7, 2′-(tert-butyl)-1-(1-methoxyisoquinoline-7-carbonyl)-4′,6′-dihydrospiro[piperidine-4,5′-pyrazolo[3,4-c]pyridin]-7′(2′H)-one] |
|  | 6 nM | 5 nM | 17 nM | 12 nM | 15 nM | CC(C)n1ncc2c1C(=O)CC1(CCN(C(=O)c3ccc4ccc(NC(C)(C)C)nc4c3)CC1)C2 [Example 4, 1′-(2-(tert-butylamino)quinoline-7-carbonyl)-1-isopropyl-4,6-dihydrospiro[indazole-5,4′-piperidin]-7(1H)-one] |
|  | > 10000 nM |  |  |  |  | CCCCCCCCCCCCCCOc1ccc(C(=O)OCc2oc(=O)oc2C)o1 [Example 19, (5-methyl-2-oxo-1,3-dioxol-4-yl)methyl 5-(tetradecyloxy)furan-2-carboxylate] |
|  |  |  | 11000 nM | 2200 nM |  | CCCCC1=NC2(CCN(C(=O)c3c(NC(=O)NCC)sc4ccccc34)CC2)C(=O)N1 [Example 20, 1-(3-(2-butyl-4-oxo-1,3,8-triazaspiro[4.5]dec-1-ene-8-carbonyl)benzo[b]thiophen-2-yl)-3-ethyl urea] |
|  | 3 nM | 4 nM | 4 nM | 2 nM | 28.2 nM | COc1ccc2ccc(C(=O)N3CCC4(CC3)CC(=O)c3c(cnn3C(C)C)C4)cc2c1 [Example 2, 1-isopropyl-1′-(7-methoxy-2-naphthoyl)-4,6-dihydrospiro[indazole-5,4′-piperidin]-7(1H)-one] |
|  | 23 nM | 5 nM | 12 nM | 8 nM | 8930 nM | CCOc1cc(C(=O)N2CCC3(CC2)CC(=O)c2cc(-c4cncc(C(N)=O)c4)ccc2O3)cc(OCC)c1-c1cccc(C(=O)O)c1 [Example 14, 4′-(6-(5-carbamoylpyridin-3-yl)-4-oxospiro[chromane-2,4′-piperidine]-1′-carbonyl)-2′,6′-diethoxy-[1,1′-biphenyl]-3-carboxylic acid] |
| 103 nM | 5 nM | 4 nM |  |  |  | CC(C)n1ncc2c1C(=O)CC1(CCN(C(=O)c3ccc4[nH]nc(C#N)c4c3)CC1)C2 [Example 6, 5-(1-isopropyl-7-oxo-1,4,6,7-tetrahydrospiro[indazole-5,4′-piperidin]-1′-ylcarbonyl)-1H-indazole-3-carbonitrile] |
|  |  |  | 16 nM | 4 nM | 1690 nM | COc1cc(C(=O)N2CCC3(CC2)CC(=O)c2cc(-c4nnn[nH]4)ccc2O3)cc2c1ccn2C1CC1 [Example 10, 1′-(1-cyclopropyl-4-methoxy-1H-indole-6-carbonyl)-6-(1H-tetrazol-5-yl)spiro[chromane-2,4′-piperidin]-4-one] |
|  | 98 nM | 2 nM | 44 nM | 7 nM |  | CC(=O)N[C@@H](C)c1cc(-c2cnc(Oc3ccc(OCC4CC4)cc3)s2)no1 [Example 21, (S)—N-(1-(3-(2-(4-(cyclopropylmethoxy)phenoxy)thiazol-5-yl)isoxazol-5-yl)ethyl)acetamide] |
|  |  |  | 2200 nM | 1100 nM | 4310 nM | CC(=O)NCC(C)c1ccc2nc(Oc3ccc(OCC4CC4)nc3)sc2c1 (stereo not drawn) [Example 15, N-(2-(2-((6-(cyclopropylmethoxy)pyridin-3-yl)oxy)benzo[d]thiazol-6-yl)propyl)acetamide] |
|  | 26 nM | 2 nM | 141 nM | 29 nM | 121 nM | CC(=O)N[C@@H](C)C#Cc1ccc(Oc2ccc(OC(C)C)cc2)cc1 [Example 12, (S)—N-(4-(4-(4-isopropoxyphenoxy)phenyl)but-3-yn-2-yl)acetamide] |
|  | 687 nM | 16 nM | 680 nM | 109 nM |  | CC(=O)N[C@@H](C)CCc1ccc(Oc2ccc(OC(C)C)cc2)cc1 [Example 23, (S)—N-(4-(4-(4-isopropoxyphenoxy)phenyl)butan-2-yl)acetamide] |
|  |  |  | > 2980 nM | 180 nM | 3280 nM | CCCOc1ccc(Oc2ccc(-c3ccc(C(C)NC(C)=O)cc3)cn2)cc1 (stereo not drawn) [Example 13, N-(1-(4-(6-(4-propoxyphenoxy)pyridin-3-yl)phenyl)ethyl)acetamide, reference compound] |
|  | > 10000 nM |  |  |  |  | CCCCCCCCCCCCCCOc1ccc(C(=O)OCC(F)(F)F)o1 [Example 17, 2,2,2-trifluoroethyl 5-(tetradecyloxy)furan-2-carboxylate] |
|  |  |  | 74 nM | 69 nM | 2770 nM | CC(C)(O)[C@@H](NC(=O)[C@H]1CC[C@H](NS(=O)(=O)c2ccc(C(F)(F)F)cc2)CC1)c1ccccc1 [Example 16, (1R,4S)—N—((S)-2-hydroxy-2-methyl-1-phenylpropyl)-4-((4-(trifluoromethyl)phenyl)sulfonamido)cyclohexane-1-carboxamide] |

| Structure (SMILES) | IC50 [1] | IC50 (hACC1) | IC50 (hACC2) | IC50 [2] | IC50 [3] | IC50 ([1]; Homo sapiens) |
| --- | --- | --- | --- | --- | --- | --- |
| CO[C@H]1CCCC[C@@H](c2ccccc2)OC(=O)[C@@H](C)[C@@]2(O)O[C@H]([C@@H](C)[C@H](O)[C@H]2OC)[C@@H](C)/C=C/[C@H]1OC [Example 9, reference compound] |  | 140 nM | 16 nM | 20 nM | 1200 nM | 4 nM |

— patent US20160220557A1, “USE OF ACETYL-COA CARBOXYLASE INHIBITORS FOR TREATING ACNE VULGARIS” (PFIZER INC., priority 2013, published 2016)
